Key:
[1] = system: peripheral blood mononuclear cells (=PBMC); experiment: Th1 and Th2 cytokine profiles produced by mitogen-stimulated PBMC (ELISA), ex vivo; format: cell-based, human
Method: The effects of dydrogesterone on Th1 and Th2 cytokine profiles produced by mitogen-stimulated peripheral blood mononuclear cells (=PBMC) were determined. Several studies have pointed to a deviation of cytokine profiles in women when during pregnancy. Pregnancy is associated with a shift towards Th2 bias, evinced by changes in peripheral T cells, by cytokine production by peripheral lymphocytes and by cytokine changes at the maternal-fetal interface. Unexplained recurrent spontaneous abortion (URSA) seems to be associated with a stronger bias towards Th1 cytokines. Women who have earlier been gone through URSA may therefore be regarded as a pre-selected group of patients that will typically respond to an immunological stimulation by showing a Th1 dominated pattern of immune response. The pharmacological test was therefore performed with a suitable URSA group which comprised of women admitted with spontaneous abortion for evacuation, (i) who have had at least two previous unexplained miscarriages, (ii) who were currently undergoing at least a 3rd abortion and (iii) who had been fully investigated. The relationship between habitual abortion and cytokine production response in 54 women with normal pregnancy (and at least 3 previous normal pregnancies) and 23 women with a history of habitual abortion of unexplained aetiology (URSA group) has been investigated. Mitogen-induced stimulation of Peripheral Blood Mononuclear Cells (PBMC): Peripheral blood was obtained by venipuncture from the abortion group on the day of abortion. PBMC is separated by Ficoll-paque (Pharmacia Biotech, Sweden) density gradient centrifugation, suspended in RPMI medium (=“Roswell Park Memorial Institute”-medium; obtained from GIBCO/BRL, USA) containing 10% fetal calf serum, aliquoted into 96 well tissue culture plates at a density of 100.000 cells per well and then stimulated with the mitogen phytohemagglutinin (=PHA, Sigma Chemicals, USA) at a concentration of […] for a period of 96 hours, with autologous placental antigens or with trophoblast antigens. Progesterone, dydrogesterone (Duphaston®) and RU486 (=mifepristone) was added in different combinations as described below. Progesterone was tested at concentrations of […]. RU486 was tested at equivalent concentrations. Culture supernatants were harvested at 96 hours for determination of the levels of cytokines secreted by the PBMC into the supernatants. Cytokine levels were determined in the supernatants by enzyme-linked immunosorbent assay (=ELISA). Protocol of Experimental Samples: Each sample was tested in the following manner: • PBMC+mitogen • PBMC+mitogen+progesterone • PBMC+mitogen+progesterone+RU486 • PBMC+mitogen+dydrogesterone • PBMC+mitogen+dydrogesterone+RU486 • PBMC+mitogen+Carrier • PBMC+mitogen+Carrier+RU486 Determination of cytokine levels by ELISA: Th1 cytokines TNF-α and IFN-γ, and Th2 cytokines IL-4, IL-6 and IL-10 were evaluated in these samples by ELISA using kits that were obtained from Immunotech SA, France. These consisted of “sandwich ELISA”; briefly the first step leads to the capture of the relevant cytokine by monoclonal anti-cytokine antibodies bound to the wells of microtiter plates. In the second step, a second biotinylated monoclonal is added together with streptavidin-enzyme (peroxidase or alkaline phosphatase) conjugate. The biotinylated antibody binds to the solid phase antibody-antigen complex, and in turn, binds the conjugate. After incubation the wells are washed and the binding of the streptavidin-enzyme via biotin is followed by the addition of a chromogenic substrate. The intensity of the coloration produced is proportional to the concentration of the cytokine in the sample. Standard curves are plotted for each of the cytokines using reference recombinant cytokines and the results are read from these curves. The sensitivity of each of the assays is as follows: 5 pg/ml of TNF-α, 0.08 IU/ml of IFN-γ, 5 pg/ml of IL-4 and 5 pg/ml of IL-10. […]

[2] = system: pregnant mice; experiment: murine stress-induced abortion model; format: in vivo
Source text: The results of the pharmacological test method given above can also be confirmed in an in vivo test model involving pregnant mice. […] Pregnant mice were exposed to ultrasound on day 5 of gestation. This stress increased the abortion rate of these mice from around 12% to 44%. Treatment with dydrogesterone reduced the abortion in a dose-related manner to as low as 5%.

[3] = system: Th1 cytokine production to trophoblast; conditions: in vitro, women with recurrent pregnancy loss; Choi et al., Human Reproduction 15/1 (2000) 46-59; cited from earlier work
[4] = PHA-stimulated PBMC supernatant, ELISA, 96 hours
[5] = women with spontaneous abortion and habitual abortion

Row | SMILES | IFN-γ [1, 4] | Interleukin 4 [1, 4] | Interleukin 6 [1, 4] | Th1/Th2 bias ([1]; PHA-stimulated PBMC, 96 hours, women with spontaneous and habitual abortion) | activity of lymphocytes [1, 5] | release of progesterone induced blocking factor (PIBF) [1, 5] | Th1/Th2-cytokine production ([2]; murine stress-induced abortion model) | abortion rate ([2]; pregnant mice exposed to ultrasound on day 5 of gestation, dose-related, stress raised rate from around 12% to 44%) [%] | level of IL-4 ([2]; pregnant mice exposed to ultrasound stress on day 5 of gestation) | embryotoxic Th1 cytokine production to trophoblast [3]
1 | CC(=O)[C@H]1CC[C@H]2[C@@H]3C=CC4=CC(=O)CC[C@@]4(C)[C@@H]3CC[C@]12C [dydrogesterone] | reduction of IFN-γ | marked increase | marked increase | shift from a Th1 towards a Th2 bias | reduced the activity of lymphocytes | increased release | shift from Th1 to Th2-cytokine production | ≥ 5 | increased level | 
2 | CC(=O)[C@H]1CC[C@H]2[C@@H]3CCC4=CC(=O)CC[C@]4(C)[C@H]3CC[C@]12C [progesterone] |  |  |  |  |  |  |  |  |  | inhibits
